ChEMBL document CHEMBL6182949 (J Med Chem, 2025)
≈ marks a conversion by molar mass, not a printed value. Calls of active or inactive are those of the source. No cut-off for these calls is given here.

Experiments:
[1] = Cmax in Sprague-Dawley rat at 2 mg/kg, iv measured up to 24 hrs by LC-MS/MS analysis; type: ADME, organism-based; conditions: in vivo
[2] = Oral bioavailability in cynomolgus monkey at 20 mg/kg measured up to 24 hrs by LC-MS/MS analysis; type: ADME, organism-based, Macaca fascicularis; conditions: in vivo
[3] = Volume of distribution at steady state in cynomolgus monkey at 1 mg/kg, iv measured up to 24 hrs by LC-MS/MS analysis; type: ADME, organism-based, Macaca fascicularis; conditions: in vivo, read-out: Vdss
[4] = Oral bioavailability in male C57BL/6 mouse at 10 mg/kg measured up to 24 hrs by LC-MS/MS analysis; type: ADME, organism-based; conditions: in vivo
[5] = Kinetic solubility of compound in FaSSIF at pH 6.5 incubated for 2 hr by LC-MS analysis; type: physicochemical; conditions: read-out: Kinetic_solubility
[6] = target: CYP3A4 (Homo sapiens, UniProt P08684); test: Inhibition of CYP3A4 in human liver microsome using testosterone as substrate at 10 uM preincubated for 5 mins followed by NADPH addition and measured after 10 mins by LC-MS/MS analysis relative to control; type: ADME; conditions: human liver microsomes, probe testosterone, time 15 min
Chain of CYP3A4 (P08684 whole entry): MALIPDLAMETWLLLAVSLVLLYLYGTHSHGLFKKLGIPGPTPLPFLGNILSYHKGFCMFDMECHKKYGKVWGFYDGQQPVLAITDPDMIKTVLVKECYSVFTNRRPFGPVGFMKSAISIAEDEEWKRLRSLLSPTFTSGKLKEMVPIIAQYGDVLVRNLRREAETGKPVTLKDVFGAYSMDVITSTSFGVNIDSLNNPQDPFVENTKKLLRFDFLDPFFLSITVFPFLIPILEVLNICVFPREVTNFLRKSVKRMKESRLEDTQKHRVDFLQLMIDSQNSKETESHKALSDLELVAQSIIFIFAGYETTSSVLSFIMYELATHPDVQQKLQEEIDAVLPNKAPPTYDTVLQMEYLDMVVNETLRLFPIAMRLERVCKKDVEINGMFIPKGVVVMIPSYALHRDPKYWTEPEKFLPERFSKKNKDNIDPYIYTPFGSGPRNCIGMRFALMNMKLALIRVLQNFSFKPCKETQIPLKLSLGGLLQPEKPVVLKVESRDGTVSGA

[7] = Cmax in Beagle dog at 10 mg/kg, po measured up to 24 hrs by LC-MS/MS analysis; type: ADME, organism-based, Canis lupus familiaris; conditions: in vivo
[8] = Kinetic solubility of compound in PBS buffer at pH 7.4 incubated for 2 hr by LC-MS analysis; type: physicochemical; conditions: read-out: Kinetic_solubility
[9] = Cmax in Beagle dog at 2 mg/kg, iv measured up to 24 hrs by LC-MS/MS analysis; type: ADME, organism-based, Canis lupus familiaris; conditions: in vivo
[10] = target: T1, Protein cereblon/Interleukin-1 receptor-associated kinase 4 (Homo sapiens, UniProt Q9NWZ3+Q96SW2); test: PROTAC activity at CRBN/IRAK4 in human THP-1 cells assessed as induction of IRAK4 degradation incubated for 24 hrs by HiBiT lytic reagent based analysis; type: cell-based
Target sequence in this assay (Q9NWZ3 whole entry): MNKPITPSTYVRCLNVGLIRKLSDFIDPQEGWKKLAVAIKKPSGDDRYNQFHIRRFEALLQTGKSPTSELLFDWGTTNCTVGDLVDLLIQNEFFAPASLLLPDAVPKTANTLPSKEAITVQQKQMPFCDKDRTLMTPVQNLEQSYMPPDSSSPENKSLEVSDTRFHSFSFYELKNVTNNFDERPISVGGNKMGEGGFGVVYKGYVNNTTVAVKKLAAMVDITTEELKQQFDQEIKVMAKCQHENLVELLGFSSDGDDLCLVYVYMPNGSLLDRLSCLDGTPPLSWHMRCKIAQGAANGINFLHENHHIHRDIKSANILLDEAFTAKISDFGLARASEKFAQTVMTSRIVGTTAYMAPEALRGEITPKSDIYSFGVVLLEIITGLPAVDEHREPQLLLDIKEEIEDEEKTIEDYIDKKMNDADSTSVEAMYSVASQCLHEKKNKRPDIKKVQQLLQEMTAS
Target sequence in this assay (Q96SW2 whole entry): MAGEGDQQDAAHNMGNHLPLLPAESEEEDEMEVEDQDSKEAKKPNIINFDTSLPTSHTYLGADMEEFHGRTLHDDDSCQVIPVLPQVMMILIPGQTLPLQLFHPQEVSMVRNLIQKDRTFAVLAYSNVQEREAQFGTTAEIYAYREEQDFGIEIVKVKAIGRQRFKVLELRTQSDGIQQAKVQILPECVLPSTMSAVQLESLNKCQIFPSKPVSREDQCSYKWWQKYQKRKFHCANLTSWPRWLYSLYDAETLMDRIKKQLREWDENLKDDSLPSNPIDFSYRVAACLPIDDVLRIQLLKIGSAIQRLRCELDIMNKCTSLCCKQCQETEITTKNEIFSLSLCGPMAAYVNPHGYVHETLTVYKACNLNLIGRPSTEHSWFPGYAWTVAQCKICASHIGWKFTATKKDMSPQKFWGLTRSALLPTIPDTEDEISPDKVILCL

[11] = Metabolic stability in cynomolgus monkey liver microsome assessed as half life at 1 uM measured up to 60 mins in presence of NADPH by LC-MS/MS analysis; type: ADME, Macaca fascicularis; conditions: liver microsomes
[12] = Clearance in cynomolgus monkey at 1 mg/kg, iv measured up to 24 hrs by LC-MS/MS analysis; type: ADME, organism-based, Macaca fascicularis; conditions: in vivo
[13] = Half life in cynomolgus monkey at 1 mg/kg, iv measured up to 24 hrs by LC-MS/MS analysis; type: ADME, organism-based, Macaca fascicularis; conditions: in vivo
[14] = Cmax in cynomolgus monkey at 20 mg/kg, po measured up to 24 hrs by LC-MS/MS analysis; type: ADME, organism-based, Macaca fascicularis; conditions: in vivo
[15] = Cmax in male C57BL/6 mouse at 2 mg/kg, iv measured up to 24 hrs by LC-MS/MS analysis; type: ADME, organism-based; conditions: in vivo
[16] = Half life in male C57BL/6 mouse at 10 mg/kg, po measured up to 24 hrs by LC-MS/MS analysis; type: ADME, organism-based; conditions: in vivo
[17] = target: hERG (KCNH2) (Homo sapiens, UniProt Q12809); test: Inhibition of hERG expressed in HEK293 cells at 3 uM by manual patch clamp assay relative to control; type: toxicity, cell-based; conditions: HEK293 cells expressing hERG
Chain of hERG (KCNH2) (Q12809 whole entry): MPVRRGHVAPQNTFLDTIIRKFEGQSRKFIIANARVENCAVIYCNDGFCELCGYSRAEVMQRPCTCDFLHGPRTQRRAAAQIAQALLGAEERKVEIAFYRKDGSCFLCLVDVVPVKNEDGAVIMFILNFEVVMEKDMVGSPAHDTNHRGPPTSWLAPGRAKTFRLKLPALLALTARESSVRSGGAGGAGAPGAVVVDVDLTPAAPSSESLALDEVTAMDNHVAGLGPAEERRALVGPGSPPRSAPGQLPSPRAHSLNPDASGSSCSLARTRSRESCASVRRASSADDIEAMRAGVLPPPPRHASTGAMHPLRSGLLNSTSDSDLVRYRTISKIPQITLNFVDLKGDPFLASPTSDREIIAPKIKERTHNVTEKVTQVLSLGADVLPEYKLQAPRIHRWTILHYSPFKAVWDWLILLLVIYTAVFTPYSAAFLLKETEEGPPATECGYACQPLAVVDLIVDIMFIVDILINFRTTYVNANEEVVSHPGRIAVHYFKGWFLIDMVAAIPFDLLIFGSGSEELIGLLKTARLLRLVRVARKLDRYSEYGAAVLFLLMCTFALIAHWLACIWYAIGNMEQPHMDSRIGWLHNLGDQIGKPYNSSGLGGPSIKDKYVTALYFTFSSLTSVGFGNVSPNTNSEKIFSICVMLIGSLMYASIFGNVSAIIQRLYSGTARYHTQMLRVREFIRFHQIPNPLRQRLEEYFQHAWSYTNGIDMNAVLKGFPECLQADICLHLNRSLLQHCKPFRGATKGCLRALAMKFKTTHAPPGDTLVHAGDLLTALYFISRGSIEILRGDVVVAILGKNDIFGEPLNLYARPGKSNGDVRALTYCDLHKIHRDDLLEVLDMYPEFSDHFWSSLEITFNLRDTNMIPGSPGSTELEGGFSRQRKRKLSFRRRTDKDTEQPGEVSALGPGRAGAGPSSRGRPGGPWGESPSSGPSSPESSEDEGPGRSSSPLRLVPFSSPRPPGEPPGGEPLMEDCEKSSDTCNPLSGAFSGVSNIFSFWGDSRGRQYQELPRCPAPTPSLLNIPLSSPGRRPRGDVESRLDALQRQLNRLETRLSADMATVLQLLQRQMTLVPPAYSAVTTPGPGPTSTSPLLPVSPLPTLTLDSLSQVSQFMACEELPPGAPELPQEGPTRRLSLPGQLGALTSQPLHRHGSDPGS

[18] = test system: Mus musculus; test: Anti-arthritic activity against collagen-induced arthritis DBA/1 mouse model assessed as improvement in delta paw volume at 100 mg/kg, po administered for 14 days […]; type: functional, organism-based; conditions: time 14.0 day
[19] = target: T2, Protein cereblon/Interleukin-1 receptor-associated kinase 4 (Mus musculus) (UniProt Q8C7D2+Q8R4K2); test: In-vivo PROTAC activity at C57BL/6 mouse assessed as reduction in IRAK4 level in spleen at 30 mg/kg, po measured after 24 hrs by Western blot analysis; type: functional, organism-based; set-up: scale not given: the % may be the effect or the level left
T2 sequence (Q8C7D2 whole entry, looked up): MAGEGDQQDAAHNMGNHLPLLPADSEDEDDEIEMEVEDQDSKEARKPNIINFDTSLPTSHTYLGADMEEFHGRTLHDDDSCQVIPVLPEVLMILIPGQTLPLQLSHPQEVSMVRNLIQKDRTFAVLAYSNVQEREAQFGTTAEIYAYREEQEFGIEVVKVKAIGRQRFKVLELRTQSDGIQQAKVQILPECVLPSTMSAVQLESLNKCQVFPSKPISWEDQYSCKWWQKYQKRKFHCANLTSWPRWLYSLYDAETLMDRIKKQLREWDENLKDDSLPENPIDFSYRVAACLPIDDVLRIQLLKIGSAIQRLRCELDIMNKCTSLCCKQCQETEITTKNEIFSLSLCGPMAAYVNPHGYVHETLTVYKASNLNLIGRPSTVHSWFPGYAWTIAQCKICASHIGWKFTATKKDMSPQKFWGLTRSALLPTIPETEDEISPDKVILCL
T2 sequence (Q8R4K2 whole entry, looked up): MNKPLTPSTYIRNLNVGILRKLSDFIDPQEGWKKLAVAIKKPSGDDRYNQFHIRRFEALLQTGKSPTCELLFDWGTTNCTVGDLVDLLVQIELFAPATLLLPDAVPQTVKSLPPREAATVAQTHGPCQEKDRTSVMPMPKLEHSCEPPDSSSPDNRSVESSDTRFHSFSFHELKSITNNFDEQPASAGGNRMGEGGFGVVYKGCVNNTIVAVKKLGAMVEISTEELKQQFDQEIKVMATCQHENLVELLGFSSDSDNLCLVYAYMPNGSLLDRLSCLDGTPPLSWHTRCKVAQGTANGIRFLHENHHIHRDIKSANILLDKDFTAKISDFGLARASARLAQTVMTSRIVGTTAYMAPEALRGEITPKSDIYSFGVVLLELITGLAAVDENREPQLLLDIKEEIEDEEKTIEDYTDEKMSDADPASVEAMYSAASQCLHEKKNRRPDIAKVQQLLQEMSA

[20] = target: T1, Protein cereblon/Interleukin-1 receptor-associated kinase 4; test: PROTAC activity at CRBN/IRAK4 in human THP-1 cells assessed as induction of IRAK4 degradation incubated for 24 hrs by HiBiT lytic reagent based analysis relative to control; type: cell-based
Target sequence in this assay (Q96SW2 whole entry, looked up): as the sequence (Q96SW2 whole entry) above
Target sequence in this assay (Q9NWZ3 whole entry, looked up): as the sequence (Q9NWZ3 whole entry) above

[21] = target: T2, Protein cereblon/Interleukin-1 receptor-associated kinase 4 (Mus musculus); test: PROTAC activity at CRBN/IRAK4 in mouse PBMC cells assessed as induction of IRAK4 degradation incubated for 24 hrs by HiBiT lytic reagent based analysis relative to control; type: cell-based
[22] = Volume of distribution at steady state in male C57BL/6 mouse at 2 mg/kg, iv measured up to 24 hrs by LC-MS/MS analysis; type: ADME, organism-based; conditions: in vivo, read-out: Vdss
[23] = target: Protein cereblon/Interleukin-1 receptor-associated kinase 4 (Macaca fascicularis) (UniProt A0A2K5UTB3+A0A2K5V3Y9); test: PROTAC activity at CRBN/IRAK4 in cynomolgus monkey PBMC assessed as reduction in IRAK4 level measured at 48 hrs by immunoblotting analysis; type: cell-based; set-up: scale not given: the % may be the effect or the level left
Chain of Protein cereblon/Interleukin-1 receptor-associated kinase 4 (Macaca fascicularis) (A0A2K5UTB3 1-488): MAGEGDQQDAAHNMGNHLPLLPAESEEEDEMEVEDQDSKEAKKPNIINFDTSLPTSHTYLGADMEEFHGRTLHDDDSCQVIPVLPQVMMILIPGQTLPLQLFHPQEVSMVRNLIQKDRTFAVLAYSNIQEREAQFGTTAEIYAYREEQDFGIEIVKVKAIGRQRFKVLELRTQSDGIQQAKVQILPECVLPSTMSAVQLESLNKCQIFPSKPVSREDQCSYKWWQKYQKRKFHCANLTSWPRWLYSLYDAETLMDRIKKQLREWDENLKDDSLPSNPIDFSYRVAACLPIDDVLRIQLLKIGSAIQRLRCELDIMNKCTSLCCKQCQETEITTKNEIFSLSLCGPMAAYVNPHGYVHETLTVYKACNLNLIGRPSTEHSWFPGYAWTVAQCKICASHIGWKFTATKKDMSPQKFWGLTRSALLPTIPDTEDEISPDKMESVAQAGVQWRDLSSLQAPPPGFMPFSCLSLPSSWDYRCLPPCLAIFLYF
Chain of Protein cereblon/Interleukin-1 receptor-associated kinase 4 (Macaca fascicularis) (A0A2K5V3Y9 1-460 partner): as the sequence (Q9NWZ3 whole entry) above, with I118V, C128Y, V138L, P148L, T208A, A459D counted along it

[24] = Metabolic stability dog hepatocyte assessed as half life at 1 uM measured up to 120 mins by LC-MS/MS analysis; type: ADME, cell-based, Canis lupus familiaris; conditions: hepatocytes
[25] = test system: Mus musculus; test: Anti-psoriasis effect in IMQ-induced C57BL/6 mouse assessed as reduction in spleen weight at 100 mg/kg administered topically twice daily for 6 days and measured after 24 hrs; type: functional, organism-based; conditions: time 7.0 day
[26] = target: T3, CYP2C8 (Homo sapiens, UniProt P10632); test: Inhibition of CYP2C8 in human liver microsome using amodiaquine as substrate at 10 uM preincubated for 5 mins followed by NADPH addition and measured after 5 mins by LC-MS/MS analysis relative to control; type: ADME; conditions: human liver microsomes, probe amodiaquine, time 10 min
T3 sequence (P10632 whole entry): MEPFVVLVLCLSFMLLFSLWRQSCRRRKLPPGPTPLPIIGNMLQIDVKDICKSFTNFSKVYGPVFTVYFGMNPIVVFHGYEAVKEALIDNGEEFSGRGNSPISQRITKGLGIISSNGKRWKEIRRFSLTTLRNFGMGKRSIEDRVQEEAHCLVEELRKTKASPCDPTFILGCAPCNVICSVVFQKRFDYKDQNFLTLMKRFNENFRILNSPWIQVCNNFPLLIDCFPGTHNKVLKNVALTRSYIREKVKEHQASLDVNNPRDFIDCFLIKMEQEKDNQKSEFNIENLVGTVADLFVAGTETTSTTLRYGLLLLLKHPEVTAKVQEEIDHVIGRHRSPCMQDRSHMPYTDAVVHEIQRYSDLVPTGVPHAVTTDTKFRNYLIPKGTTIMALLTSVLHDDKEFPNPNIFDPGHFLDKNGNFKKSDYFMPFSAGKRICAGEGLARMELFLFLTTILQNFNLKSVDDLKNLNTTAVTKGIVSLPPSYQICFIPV

[27] = AUClast in Beagle dog at 2 mg/kg, iv measured up to 24 hrs by LC-MS/MS analysis; type: ADME, organism-based, Canis lupus familiaris; conditions: in vivo

For `Cn1c(=O)n(C2CCC(=O)NC2=O)c2cccc(C#CCO[C@H]3CC[C@H](CN4CCC5(CC4)Cc4cc(NC(=O)c6coc7cccnc67)c(N6CCC(CO)CC6)cc4O5)CC3)c21` (some centres not stated), the Cmax [1] was 14.2 ng/mL, the bioavailability [2] was 11% and the Vd [3] was 3.85 L/kg. The bioavailability [4] was 45%, the solubility kinetic at 2 h [5] was 13.3 µg/mL (≈ 15.3 µM) and the inhibition at 10 min, 10 µM [6] was 10.2%. For the same compound, the Cmax [7] was 360 ng/mL, the solubility kinetic at 2 h [8] was 0.97 µg/mL (≈ 1.11 µM) and the Cmax [9] was 599 ng/mL. It also gave a DC50 [10] of 4.01 nM, a half-life at 1 µM [11] of 119 min and a clearance [12] of 9.2 mL/min/kg. The half-life [13] was 520 min, the Cmax [14] was 229 ng/mL and the Cmax [15] was 1870 ng/mL. The half-life [16] was 260 min, the inhibition at 3 µM [17] was 53% and the Activity [18] was “Active”. It also gave an Activity [19] of over 80%, an Emax [20] of 94% and an Emax [21] of 82%. For the same compound, the Vd [22] was 0.88 L/kg, the Activity [23] was 83% and the half-life at 1 µM [24] was over 371 min. The Activity [25] was “Active”, the inhibition at 5 min, 10 µM [26] was 12.4% and the AUC(0-t) at 24 h [27] was 2670 ng·h/mL.
